According to patent publication US5834452A, “1- or 6-hydroxylated steroids” (Roussel Uclaf, priority 1996, dated 1998):

Assays:
[1] = system: endometrial proliferation (uterine lace); test: Progestomimetic activity: endometrial transformation in the rabbit (Clauberg-McPhail test); format: in vivo; set-up: key to Maximal activity on the uterine lace (McPhail index) / Average uterine lace (McPhail Index): McPhail scale 0–4 with 0.5 steps (endometrial proliferation); conditions: for Average uterine lace (McPhail Index): day 8 to day 11
Procedure: 2. --Determination of the progestomimetic activity of the products of the invention: Endometrial transformation in the rabbit. The animals used were impuberal female rabbits which were 40-45 days old. The animals were treated with estradiol (5 ug/0.2 ml/rabbit in solution of corn oil, 10% ethanol) by subcutaneous route from day 1 to day 5, then the product to be studied was administered from day 8 to day 11. On day 12, the animals were sacrificed and a median portion of each uterine cornua was removed from each animal and fixed in Bouin's liquid for histological study. After fixing, the samples were dehydrated, included, cut, mounted, the paraffin was removed and then the sample was stained with hemalum-eosin-saffron. […] Then, for each of the cornua, a semi-quantitative evaluation of the endometrial proliferation (uterine lace) was carried out by the McPhail scale from 0 to 4 with 0.5 intermediates and the two figures were averaged. Similarly, the degree of hypertrophy of the cornua was evaluated by the same scale. At higher magnification, morphological observations of the mucous membrane or the myometrium could possibly be formulated. The 1-OH metabolite (product A) was tested at doses of 10, 100, 1000 μg/kg by subcutaneous route as well as orally at a dose of 1000 μg/kg. The 6-OH metabolite (product B) was tested at doses of 100, 1000 and 10000 μg/kg subcutaneously. As a control, progesterone was administered at doses of 100 and 1000 μg/kg by subcutaneous route. The averages were produced for the uterine lace (McPhail Index).

[2] = biological target: T1, Human progesterone receptor (HPR) (Homo sapiens, UniProt P06401); test: Relative bond affinity (RBA), recombinant human progestogen receptor, charcoal dextran technique; format: binding; conditions: relative to Trimegestone
T1 construct: made in house; host or cells: SF9 insect cells (ATCC CRL1711), baculovirus, lysate supernatant
T1 sequence (P06401 1-933): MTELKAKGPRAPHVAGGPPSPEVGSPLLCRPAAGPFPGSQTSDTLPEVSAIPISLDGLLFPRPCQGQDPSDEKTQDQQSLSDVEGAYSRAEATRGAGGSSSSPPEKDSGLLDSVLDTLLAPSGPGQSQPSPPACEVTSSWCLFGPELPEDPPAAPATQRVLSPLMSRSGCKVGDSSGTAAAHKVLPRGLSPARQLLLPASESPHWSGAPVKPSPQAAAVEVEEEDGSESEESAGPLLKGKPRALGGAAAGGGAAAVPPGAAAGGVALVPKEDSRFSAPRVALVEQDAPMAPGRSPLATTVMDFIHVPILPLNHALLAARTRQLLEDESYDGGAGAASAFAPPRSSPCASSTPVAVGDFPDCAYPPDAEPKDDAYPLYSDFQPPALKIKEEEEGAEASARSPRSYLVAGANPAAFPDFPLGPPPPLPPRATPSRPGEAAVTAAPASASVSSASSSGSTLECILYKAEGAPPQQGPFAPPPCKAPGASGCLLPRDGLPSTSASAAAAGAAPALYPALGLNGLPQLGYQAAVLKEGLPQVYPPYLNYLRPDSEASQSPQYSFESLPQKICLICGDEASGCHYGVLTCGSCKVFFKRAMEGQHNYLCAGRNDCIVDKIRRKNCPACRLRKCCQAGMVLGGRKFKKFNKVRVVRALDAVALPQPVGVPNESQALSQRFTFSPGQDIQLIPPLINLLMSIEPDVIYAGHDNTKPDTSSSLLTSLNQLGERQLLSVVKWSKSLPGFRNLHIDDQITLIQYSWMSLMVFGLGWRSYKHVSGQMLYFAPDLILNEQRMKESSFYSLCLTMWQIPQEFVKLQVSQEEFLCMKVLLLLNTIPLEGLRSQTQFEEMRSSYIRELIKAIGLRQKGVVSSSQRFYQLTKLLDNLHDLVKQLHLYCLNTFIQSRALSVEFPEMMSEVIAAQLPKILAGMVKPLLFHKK
Source text: The human recombinant receptor (HGR, HPR, HAR, HMR, HER) was used.
Human progesterone receptor (HPR):
The recombinant human progestogen receptor was obtained by the superexpression in a cell system of insects--Baculovirus, according to the methodology described by Webb et al (Journal of Methods in Cell and Molecular Biology, (1990) Vol. 2 No. 4, p. 173-188) and the application of which was described for the expression of human hormonal receptors, for example the human glucocorticoid receptor (Srinivasan et al, Molecular Endocrinology, (1990) Vol. 4 No. 2, p. 209-216.
The BaculoGold Transfection Kit (PharMingen, reference 21000K) was used to insert the cDNA fragment described by Kastner et al (The EMBO Journal, (1990), Vol. 9 No. 5, p. 1603-1614), containing the region coding for the human progestogen receptor and to prepare the corresponding recombinant virus. The recombinant virus obtained in this way was used to express the progestogen receptor in SF9 insect cells (ATCC CRL1711), according to the known methodology cited previously.
2×10^7 to 2.5×10^7 SF9 cells were cultured in a 175 ml "Falcon" flask in the TNM-FH medium supplemented with 10% fetal calf serum (FCS) and with 50 micrograms/ml of gentamycin. After infection, then incubation at 27° C. for 40 to 42 hours, the cells were taken up in 1 ml of lysis buffer (1), lysed by 2 cycles of freezing-thawing (-80° C./ 0° C.), then centrifuged at 4° C. for 30 minutes at 20,900 g. The supernatant, containing the recombinant human progestogen receptor, was stored in liquid nitrogen in quantities of 1 ml.
The supernatant was diluted at the time of use with 10 mM Tris buffer, 0.25M saccharose, HCl pH 7.4 containing 0.1% of gelatin and then incubated at 0° C. for 24 hours with a constant concentration (T) of tritiated 17α, 21-dimethyl-19-nor-Δ^4,9 pregnadiene-3,20-dione in the presence of increasing concentrations of either unlabelled progesterone (0-2500×10^-9 M), or the unlabelled product to be tested (1 to 25000×10^-9 M). The concentration of bound tritiated 17,21-dimethyl-19-nor-Δ^4,9 -pregnadiene-3,20-dione (B) was then measured in each incubate using the charcoal dextran adsorption technique.
Calculation of the relative bond affinity (RBA).
The following two curves were drawn: the percentage of bound tritiated hormone B/BO as a function of the logarithm of the concentration of unlabelled reference hormone or as a function of the logarithm of the concentration of unlabelled test product. The straight line of the following equation was determined: […]
The relative bond affinity (RBA) of the test product was determined by the equation: […]

Row | RBA for the human progestogen receptor, times weaker than that of Trimegestone [2] [times] | SMILES | Average uterine lace (McPhail Index) ([1]; rabbit, 0,01 mg/kg, s/c) | Average uterine lace (McPhail Index) ([1]; rabbit, 0,1 mg/kg, s/c) | Hypertrophy of the cornua ([1]; rabbit, 1 mg/kg p/o route versus s/c route) | Average uterine lace (McPhail Index) ([1]; rabbit, 1 mg/kg, per os) | Average uterine lace (McPhail Index) ([1]; rabbit, 1 mg/kg, s/c, 1 mg/kg) | Maximal activity on the uterine lace (McPhail index) ([1]; rabbit, 1000 μg/kg by subcutaneous route (note)) | Average uterine lace (McPhail Index) ([1]; rabbit, 1 mg/kg, s/c)
1 | 9 | C[C@H](O)C(=O)[C@@]1(C)CC[C@H]2[C@@H]3CCC4=CC(=O)C[C@H](O)C4=C3CC[C@@]21C [Product A, [1α, 17β-(S)]-1-hydroxy-17-(2-hydroxy-1-oxopropyl)-17-methyl-Δ^4,9-estradiene-3-one] | 3,8 | 3,8 | stronger hypertrophy of the cornua | 4 | 3,8 |  | 
2 |  | CC(=O)[C@H]1CC[C@H]2[C@@H]3CCC4=CC(=O)CC[C@]4(C)[C@H]3CC[C@]12C [Progesterone, reference compound] |  | 1,8 |  |  |  | 4 | 3,8
